Source: ChEMBL document CHEMBL1201862, “PubChem BioAssay data set” (2004)
The source made the active and inactive calls.

Key:
[1] = biological target: T1, Voltage-dependent T-type calcium channel subunit alpha-1H (Homo sapiens, UniProt O95180); experiment: Inhibitors of T-Type Calcium Channels. [Related pubchem assays (depositor defined):AID449739, AID463087, AID489005, AID493041, AID504579, AID504584, AID504619, AID504628]; type: functional
[2] = HEp-2 cell cytotoxicity, dose response, cytotoxicity control for RSV inhibitor project, HTS (AID 2410); type: functional; settings: human respiratory syncytial virus
[3] = biological target: T1, Voltage-dependent T-type calcium channel subunit alpha-1H; type: functional
[4] = biological target: Cyclin-dependent kinase 5/CDK5 activator 1 (Homo sapiens, UniProt Q00535); experiment: CDK5/p35 kinase inhibitors, dose response, biochemical, cherry-picked samples, set 2 (AID 504545)
[5] = biological target: Cystic fibrosis transmembrane conductance regulator/Golgi-associated PDZ and coiled-coil motif-containing protein (Homo sapiens, UniProt P13569+Q9HD26); experiment: CAL PDZ peptide-binding inhibitors, dose response, biochemical, fluorescence polarization, Cerulean-tagged CAL PDZ, cherry-picks (AID 504773)
[6] = biological target: T2, Neuropeptide Y receptor type 2 (Homo sapiens, UniProt P49146); type: functional, cell-based;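 note: HEK293 cells expressing the receptor and a CNG channel; stimulus was NPY near EC95 followed by isoproterenol to raise cAMP; antagonist potency measured as restoring cAMP signal that NPY suppresses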
T2 sequence (P49146 whole entry): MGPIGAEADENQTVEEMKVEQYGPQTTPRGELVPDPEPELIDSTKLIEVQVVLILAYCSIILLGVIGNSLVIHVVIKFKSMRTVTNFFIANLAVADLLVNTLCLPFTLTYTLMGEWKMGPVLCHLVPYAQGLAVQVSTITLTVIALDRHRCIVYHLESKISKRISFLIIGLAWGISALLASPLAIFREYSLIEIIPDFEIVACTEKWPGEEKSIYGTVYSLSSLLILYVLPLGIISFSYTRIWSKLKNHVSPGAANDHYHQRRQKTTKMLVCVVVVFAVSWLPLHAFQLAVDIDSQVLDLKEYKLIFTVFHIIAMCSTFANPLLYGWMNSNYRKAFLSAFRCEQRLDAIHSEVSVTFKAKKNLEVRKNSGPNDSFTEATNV

[7] = growth suppression of PTEN-null colon cells, dose response, cell-based, HCT116 PTEN knockout (AID 1047); type: functional;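 note: HCT116 colon tumor cells with PTEN knocked out; cells exposed to compound for 60 hours before readout; potency for loss of cell viability measured by luminescence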
[8] = growth suppression of beta-catenin-knockout colon cells, dose response, cell-based, HCT116, human colon tumor (AID 1045); type: functional;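 note: HCT116 colon tumor cells with beta catenin knocked out; cells exposed to compound for 60 hours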
[9] = system: Vero; experiment: cells; type: functional, cell-based; settings: Chlorocebus sabaeus
[10] = NIH-3T3 fibroblast cytotoxicity, dose response, cytotoxicity control, cell-based, fluorescence, Alamar Blue, secondary assay (AID 2327); type: functional;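 note: NIH-3T3 mouse fibroblasts cultured with fluconazole at 8 µg/mL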
[11] = system: Vero; experiment: cells; type: functional; settings: Chlorocebus sabaeus
[12] = biological target: T3, Neuropeptide Y receptor type 1 (Homo sapiens, UniProt P25929); type: functional;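 note: HEK293 cells with a CNG channel challenged with NPY then isoproterenol; potency as antagonist that reverses NPY suppression of cAMP signal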
T3 sequence (P25929 whole entry): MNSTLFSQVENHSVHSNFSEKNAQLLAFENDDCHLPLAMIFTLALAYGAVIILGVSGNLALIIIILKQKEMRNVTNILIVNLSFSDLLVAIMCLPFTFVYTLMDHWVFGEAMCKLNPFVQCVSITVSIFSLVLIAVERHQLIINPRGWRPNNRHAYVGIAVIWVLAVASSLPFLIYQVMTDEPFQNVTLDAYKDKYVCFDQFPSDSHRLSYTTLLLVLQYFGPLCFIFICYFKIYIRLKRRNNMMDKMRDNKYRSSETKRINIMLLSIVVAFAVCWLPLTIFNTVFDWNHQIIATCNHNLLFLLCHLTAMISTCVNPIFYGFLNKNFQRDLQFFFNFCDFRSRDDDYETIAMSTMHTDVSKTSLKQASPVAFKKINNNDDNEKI

[13] = C. albicans growth with fluconazole, confirmation, fluorescence, retest (AID 2467); type: functional, cell-based
[14] = biological target: Neurotensin receptor type 1 (Homo sapiens, UniProt P30989); type: functional;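 note: Image-based confirmatory dose-response assay measuring agonist activity at NTR1; NTR1-expressing U2OS osteosarcoma cells imaged for beta-arrestin GFP spot formation; agonist potency where compounds increase beta-arrestin recruitment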
[15] = biological target: G2/mitotic-specific cyclin-B1 (Homo sapiens, UniProt P14635); experiment: G2/M cell cycle arrest in HeLa, late-stage follow-up, mechanism study for Wee1 degradation inhibitor project, FACS, panel member Cyclin B Degradation (AID 2088)
[16] = biological target: Wee1-like protein kinase (Homo sapiens, UniProt P30291); experiment: G2/M cell cycle arrest in HeLa, late-stage follow-up, mechanism study for Wee1 degradation inhibitor project, FACS, panel member Wee1 Degradation (AID 2088)
[17] = biological target: Cytochrome P450 2D6 (Homo sapiens, UniProt P10635);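 note: CYP2D6 member of a cytochrome P450 panel assay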
[18] = biological target: Phospholipase A2 (Homo sapiens, UniProt P04054); type: functional;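 note: confirmatory dose-response counterscreen on phospholipase A2, testing hits that came from an ultra-high-throughput screen for ATG4B inhibitors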
[19] = system: CHO; experiment: cytotoxicity in TLR9-MyD88 CHO cells, dose response, cytotoxicity control for TLR9-MyD88 binding inhibitor project, cell-based, luminescence (AID 588339); type: functional, hamster; settings: Cricetulus griseus;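 note: CHO cells stably coexpressing TLR9 and MyD88 fusions from primary screen; compound exposure lasted 48 hours before viability readout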
[20] = biological target: Beta Lactamase (Pseudomonas aeruginosa, UniProt Q932Y6); experiment: beta-lactamase reporter inhibitor potency, dose response, artefact control for TLR9-MyD88 binding inhibitor project, BLA reporter cells, FRET fluorescence (AID 588341); type: cell-based;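 note: cell based assay in CHO-K1 cells stably expressing beta-lactamase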
[21] = HeLa cell cytotoxicity, dose response, cytotoxicity control for MgcRacGAP inhibitor project (AID 624300); type: functional
[22] = biological target: T4, Rac GTPase-activating protein 1 (Homo sapiens, UniProt Q9H0H5); experiment: MgcRacGAP GTPase-activating activity inhibitors, confirmation, biochemical, ADP Hunter fluorescence, primary and confirmatory (AID 624330); type: functional
T4 sequence (Q9H0H5 whole entry): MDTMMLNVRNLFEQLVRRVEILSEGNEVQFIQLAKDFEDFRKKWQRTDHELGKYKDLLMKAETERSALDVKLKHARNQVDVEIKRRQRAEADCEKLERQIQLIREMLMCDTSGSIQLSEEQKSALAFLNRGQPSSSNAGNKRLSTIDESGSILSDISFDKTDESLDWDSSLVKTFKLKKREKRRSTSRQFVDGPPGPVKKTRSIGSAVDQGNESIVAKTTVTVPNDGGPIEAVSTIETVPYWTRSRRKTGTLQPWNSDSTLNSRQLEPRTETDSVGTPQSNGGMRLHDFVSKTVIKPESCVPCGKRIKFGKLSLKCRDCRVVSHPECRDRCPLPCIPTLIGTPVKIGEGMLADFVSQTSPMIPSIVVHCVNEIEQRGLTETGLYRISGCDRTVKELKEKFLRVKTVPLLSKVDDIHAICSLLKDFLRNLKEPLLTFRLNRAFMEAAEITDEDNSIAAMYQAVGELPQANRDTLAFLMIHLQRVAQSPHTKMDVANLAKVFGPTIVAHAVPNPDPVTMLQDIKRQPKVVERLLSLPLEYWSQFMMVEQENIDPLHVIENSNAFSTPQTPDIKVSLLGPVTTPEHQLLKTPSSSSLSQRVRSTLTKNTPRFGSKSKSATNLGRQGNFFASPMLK

[23] = biological target: T5, Cysteine protease ATG4B (Homo sapiens, UniProt Q9Y4P1); type: functional;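 note: Fluorescence-based dose-response confirmation assay measuring inhibition of ATG4B activity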
T5 sequence (Q9Y4P1 whole entry): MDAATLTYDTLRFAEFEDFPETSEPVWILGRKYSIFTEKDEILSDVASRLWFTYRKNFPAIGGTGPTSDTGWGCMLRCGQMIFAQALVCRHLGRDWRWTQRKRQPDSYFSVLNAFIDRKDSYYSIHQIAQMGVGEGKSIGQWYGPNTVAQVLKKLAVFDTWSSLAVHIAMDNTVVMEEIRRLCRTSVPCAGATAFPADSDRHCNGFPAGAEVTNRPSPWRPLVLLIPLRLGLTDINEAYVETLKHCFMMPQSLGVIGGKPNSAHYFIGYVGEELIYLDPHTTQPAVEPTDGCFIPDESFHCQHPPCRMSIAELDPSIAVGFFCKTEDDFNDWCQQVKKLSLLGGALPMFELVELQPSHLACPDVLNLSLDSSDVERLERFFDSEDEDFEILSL

[24] = microbe, parasite or virus in culture; type: functional; settings: Mycobacterium tuberculosis
[25] = biological target: T6, Hexokinase HKDC1 (Homo sapiens, UniProt Q2TB90); experiment: HKDC1 hexokinase inhibitors, dose response, biochemical, W721R variant (AID 504729); type: functional
T6 sequence (Q2TB90 whole entry): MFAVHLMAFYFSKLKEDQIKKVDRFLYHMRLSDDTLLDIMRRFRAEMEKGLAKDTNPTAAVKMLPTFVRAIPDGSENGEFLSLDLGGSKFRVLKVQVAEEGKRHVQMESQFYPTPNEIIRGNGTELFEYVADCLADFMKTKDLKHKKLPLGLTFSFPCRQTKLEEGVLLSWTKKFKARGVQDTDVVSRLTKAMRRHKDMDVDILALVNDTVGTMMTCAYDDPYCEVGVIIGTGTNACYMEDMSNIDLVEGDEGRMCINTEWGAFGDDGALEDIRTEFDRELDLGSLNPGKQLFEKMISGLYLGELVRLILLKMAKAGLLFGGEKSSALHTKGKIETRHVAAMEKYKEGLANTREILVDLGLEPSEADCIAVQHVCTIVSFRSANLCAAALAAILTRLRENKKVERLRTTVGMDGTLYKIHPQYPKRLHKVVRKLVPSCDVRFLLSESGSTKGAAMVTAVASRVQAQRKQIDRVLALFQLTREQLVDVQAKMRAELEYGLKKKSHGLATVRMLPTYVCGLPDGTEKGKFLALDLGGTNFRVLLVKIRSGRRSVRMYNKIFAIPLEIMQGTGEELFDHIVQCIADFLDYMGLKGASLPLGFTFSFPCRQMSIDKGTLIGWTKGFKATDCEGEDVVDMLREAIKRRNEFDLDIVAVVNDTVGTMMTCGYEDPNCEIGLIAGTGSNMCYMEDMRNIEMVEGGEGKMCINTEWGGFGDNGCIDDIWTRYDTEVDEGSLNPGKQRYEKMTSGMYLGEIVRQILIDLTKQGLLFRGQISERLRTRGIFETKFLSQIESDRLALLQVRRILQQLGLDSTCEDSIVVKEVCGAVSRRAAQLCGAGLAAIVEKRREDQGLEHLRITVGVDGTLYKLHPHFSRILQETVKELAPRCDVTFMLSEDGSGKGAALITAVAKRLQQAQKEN

[26] = biological target: Large T antigen (Simian virus 40, UniProt P03070); type: functional, Betapolyomavirus macacae;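 note: Confirmatory-stage PubChem screen for compounds that inhibit SV40 T antigen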
[27] = biological target: T7, Apoptotic protease-activating factor 1 (Homo sapiens, UniProt O14727); type: functional
T7 sequence (O14727 whole entry): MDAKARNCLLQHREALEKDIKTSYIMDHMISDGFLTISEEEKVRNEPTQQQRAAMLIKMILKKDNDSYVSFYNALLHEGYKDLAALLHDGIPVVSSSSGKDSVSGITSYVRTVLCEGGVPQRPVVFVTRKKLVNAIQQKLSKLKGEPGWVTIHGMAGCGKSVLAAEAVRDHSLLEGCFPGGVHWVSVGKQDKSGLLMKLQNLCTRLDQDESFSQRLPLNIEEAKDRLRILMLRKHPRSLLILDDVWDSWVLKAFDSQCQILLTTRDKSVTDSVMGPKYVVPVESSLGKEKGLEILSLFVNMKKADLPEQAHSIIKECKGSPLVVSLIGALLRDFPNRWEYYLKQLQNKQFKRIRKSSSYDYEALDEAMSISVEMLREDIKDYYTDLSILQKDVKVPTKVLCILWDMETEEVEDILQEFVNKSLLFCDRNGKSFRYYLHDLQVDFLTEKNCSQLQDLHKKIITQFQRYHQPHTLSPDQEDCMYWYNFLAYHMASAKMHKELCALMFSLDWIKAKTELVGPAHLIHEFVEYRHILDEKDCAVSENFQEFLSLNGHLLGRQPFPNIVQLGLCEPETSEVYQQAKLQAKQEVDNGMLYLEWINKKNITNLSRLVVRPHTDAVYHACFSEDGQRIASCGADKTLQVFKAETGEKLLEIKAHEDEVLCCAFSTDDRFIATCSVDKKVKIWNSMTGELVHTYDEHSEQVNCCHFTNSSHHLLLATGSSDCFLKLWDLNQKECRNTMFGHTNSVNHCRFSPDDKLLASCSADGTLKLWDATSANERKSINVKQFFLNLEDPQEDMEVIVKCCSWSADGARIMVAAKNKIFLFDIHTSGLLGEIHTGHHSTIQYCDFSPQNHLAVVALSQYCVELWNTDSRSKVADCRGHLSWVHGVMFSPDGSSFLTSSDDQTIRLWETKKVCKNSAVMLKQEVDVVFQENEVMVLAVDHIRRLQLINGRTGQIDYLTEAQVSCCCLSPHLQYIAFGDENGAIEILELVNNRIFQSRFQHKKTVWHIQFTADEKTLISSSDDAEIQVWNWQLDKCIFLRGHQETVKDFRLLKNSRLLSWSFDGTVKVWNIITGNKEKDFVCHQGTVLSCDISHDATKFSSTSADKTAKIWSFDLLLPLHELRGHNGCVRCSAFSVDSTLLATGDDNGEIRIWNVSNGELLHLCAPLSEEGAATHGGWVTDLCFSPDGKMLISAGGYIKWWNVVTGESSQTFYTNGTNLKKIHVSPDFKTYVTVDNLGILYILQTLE

T1 sequence (O95180 whole entry): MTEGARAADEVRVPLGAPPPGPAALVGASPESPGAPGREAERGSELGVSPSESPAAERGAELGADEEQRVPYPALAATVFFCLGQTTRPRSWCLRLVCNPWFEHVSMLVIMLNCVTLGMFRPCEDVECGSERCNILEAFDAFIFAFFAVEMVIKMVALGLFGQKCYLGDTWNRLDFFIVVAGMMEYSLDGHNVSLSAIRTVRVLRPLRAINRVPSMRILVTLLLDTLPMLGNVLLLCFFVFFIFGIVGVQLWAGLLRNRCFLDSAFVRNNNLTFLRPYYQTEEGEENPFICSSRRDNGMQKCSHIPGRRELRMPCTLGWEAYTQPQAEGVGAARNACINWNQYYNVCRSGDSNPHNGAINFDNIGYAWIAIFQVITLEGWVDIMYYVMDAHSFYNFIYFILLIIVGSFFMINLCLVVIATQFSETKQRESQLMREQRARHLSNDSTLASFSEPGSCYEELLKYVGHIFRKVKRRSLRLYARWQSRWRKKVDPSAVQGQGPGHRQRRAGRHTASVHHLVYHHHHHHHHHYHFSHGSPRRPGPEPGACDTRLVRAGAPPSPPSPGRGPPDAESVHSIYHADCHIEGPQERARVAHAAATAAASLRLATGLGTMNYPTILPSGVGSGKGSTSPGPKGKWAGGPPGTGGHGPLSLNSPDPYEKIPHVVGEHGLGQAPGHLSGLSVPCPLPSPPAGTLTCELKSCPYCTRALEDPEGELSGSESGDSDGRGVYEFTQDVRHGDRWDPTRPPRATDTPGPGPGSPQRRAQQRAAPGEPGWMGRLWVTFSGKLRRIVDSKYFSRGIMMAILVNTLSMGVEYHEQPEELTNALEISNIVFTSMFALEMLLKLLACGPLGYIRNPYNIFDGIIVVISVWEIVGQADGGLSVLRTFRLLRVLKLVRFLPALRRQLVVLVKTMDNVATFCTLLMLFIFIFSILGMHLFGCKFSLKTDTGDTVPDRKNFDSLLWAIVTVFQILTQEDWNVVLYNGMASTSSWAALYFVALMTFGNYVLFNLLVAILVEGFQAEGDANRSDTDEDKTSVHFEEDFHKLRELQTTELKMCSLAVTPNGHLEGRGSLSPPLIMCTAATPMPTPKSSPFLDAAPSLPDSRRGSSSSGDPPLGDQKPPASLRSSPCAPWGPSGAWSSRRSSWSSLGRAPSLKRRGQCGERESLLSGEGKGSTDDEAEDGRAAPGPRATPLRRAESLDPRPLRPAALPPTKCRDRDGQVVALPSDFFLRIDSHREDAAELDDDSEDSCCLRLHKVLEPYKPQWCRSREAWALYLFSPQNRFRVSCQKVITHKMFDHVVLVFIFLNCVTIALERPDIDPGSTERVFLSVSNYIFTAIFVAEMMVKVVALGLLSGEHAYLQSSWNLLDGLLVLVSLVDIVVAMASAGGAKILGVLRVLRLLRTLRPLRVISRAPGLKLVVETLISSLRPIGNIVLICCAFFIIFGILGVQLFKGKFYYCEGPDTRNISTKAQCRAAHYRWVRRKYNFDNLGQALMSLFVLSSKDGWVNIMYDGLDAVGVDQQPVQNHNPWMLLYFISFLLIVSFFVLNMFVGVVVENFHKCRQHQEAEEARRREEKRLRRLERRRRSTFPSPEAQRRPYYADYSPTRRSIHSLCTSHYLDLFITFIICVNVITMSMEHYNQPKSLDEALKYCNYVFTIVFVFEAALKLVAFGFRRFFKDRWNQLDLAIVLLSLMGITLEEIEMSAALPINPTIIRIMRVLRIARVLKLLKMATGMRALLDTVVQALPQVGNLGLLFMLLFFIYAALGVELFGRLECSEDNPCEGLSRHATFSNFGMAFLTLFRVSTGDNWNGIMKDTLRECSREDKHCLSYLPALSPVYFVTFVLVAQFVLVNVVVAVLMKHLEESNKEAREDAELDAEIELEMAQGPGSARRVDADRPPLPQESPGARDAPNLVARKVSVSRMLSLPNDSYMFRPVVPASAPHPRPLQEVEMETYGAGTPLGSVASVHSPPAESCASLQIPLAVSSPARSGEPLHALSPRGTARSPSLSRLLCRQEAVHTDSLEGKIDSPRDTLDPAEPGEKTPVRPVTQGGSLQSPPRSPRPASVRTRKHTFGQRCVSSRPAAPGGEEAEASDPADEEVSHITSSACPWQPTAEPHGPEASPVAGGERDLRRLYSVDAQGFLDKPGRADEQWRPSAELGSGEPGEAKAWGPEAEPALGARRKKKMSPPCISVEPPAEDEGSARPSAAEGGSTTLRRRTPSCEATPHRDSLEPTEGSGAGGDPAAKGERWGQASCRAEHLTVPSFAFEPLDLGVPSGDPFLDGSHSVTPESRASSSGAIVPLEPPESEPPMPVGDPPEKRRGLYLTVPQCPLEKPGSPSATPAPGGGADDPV
Large T antigen, sequence (P03070 whole entry): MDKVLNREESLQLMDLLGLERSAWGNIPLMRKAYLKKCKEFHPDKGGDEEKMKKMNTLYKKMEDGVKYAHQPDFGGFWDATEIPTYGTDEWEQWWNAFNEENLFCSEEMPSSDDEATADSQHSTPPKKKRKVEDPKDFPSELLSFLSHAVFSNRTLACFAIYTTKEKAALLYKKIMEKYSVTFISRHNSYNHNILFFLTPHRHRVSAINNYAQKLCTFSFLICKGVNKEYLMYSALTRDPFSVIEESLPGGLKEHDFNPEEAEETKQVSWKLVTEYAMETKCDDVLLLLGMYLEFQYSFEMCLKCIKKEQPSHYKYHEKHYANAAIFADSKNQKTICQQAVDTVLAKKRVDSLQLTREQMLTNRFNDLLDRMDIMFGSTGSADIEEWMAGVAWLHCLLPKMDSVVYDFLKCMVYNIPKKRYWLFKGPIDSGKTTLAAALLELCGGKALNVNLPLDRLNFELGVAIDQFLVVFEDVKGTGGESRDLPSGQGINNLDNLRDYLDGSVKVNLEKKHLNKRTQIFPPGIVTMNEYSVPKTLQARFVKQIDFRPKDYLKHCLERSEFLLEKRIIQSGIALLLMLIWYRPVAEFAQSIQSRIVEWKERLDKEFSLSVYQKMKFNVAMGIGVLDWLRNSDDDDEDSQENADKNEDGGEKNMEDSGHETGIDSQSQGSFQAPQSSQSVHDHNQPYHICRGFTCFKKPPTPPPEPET
Cytochrome P450 2D6, sequence (P10635 whole entry): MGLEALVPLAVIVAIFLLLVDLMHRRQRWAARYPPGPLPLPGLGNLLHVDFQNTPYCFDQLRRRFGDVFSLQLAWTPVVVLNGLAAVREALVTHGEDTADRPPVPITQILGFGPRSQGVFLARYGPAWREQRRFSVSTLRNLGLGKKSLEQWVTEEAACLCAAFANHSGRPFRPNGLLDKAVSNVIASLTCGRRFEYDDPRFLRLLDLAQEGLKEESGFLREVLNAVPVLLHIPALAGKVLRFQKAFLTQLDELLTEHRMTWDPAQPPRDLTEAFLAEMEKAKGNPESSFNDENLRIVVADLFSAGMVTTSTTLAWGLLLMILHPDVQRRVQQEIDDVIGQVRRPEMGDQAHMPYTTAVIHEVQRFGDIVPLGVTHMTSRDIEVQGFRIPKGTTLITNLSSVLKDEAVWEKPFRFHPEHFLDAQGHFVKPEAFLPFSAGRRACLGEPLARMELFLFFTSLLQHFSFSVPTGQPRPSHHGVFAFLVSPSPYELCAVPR
Beta Lactamase, sequence (Q932Y6 whole entry): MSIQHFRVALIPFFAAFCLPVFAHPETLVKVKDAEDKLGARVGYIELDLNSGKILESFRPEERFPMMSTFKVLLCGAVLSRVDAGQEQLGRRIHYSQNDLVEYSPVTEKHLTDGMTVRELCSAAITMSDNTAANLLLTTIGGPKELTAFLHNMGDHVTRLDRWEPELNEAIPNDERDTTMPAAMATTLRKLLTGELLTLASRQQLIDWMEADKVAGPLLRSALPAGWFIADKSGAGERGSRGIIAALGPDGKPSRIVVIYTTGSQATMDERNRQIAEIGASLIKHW
Cyclin-dependent kinase 5/CDK5 activator 1, sequence (Q00535 whole entry): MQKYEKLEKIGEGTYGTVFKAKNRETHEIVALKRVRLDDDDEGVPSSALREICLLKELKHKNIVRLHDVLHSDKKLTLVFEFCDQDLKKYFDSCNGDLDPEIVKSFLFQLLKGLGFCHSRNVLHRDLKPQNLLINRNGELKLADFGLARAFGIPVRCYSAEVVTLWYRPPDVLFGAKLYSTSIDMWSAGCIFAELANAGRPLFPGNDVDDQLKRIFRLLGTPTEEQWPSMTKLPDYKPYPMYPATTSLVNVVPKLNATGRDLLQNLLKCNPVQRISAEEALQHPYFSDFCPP
Cyclin-dependent kinase 5/CDK5 activator 1, sequence (Q15078 whole entry, further chain): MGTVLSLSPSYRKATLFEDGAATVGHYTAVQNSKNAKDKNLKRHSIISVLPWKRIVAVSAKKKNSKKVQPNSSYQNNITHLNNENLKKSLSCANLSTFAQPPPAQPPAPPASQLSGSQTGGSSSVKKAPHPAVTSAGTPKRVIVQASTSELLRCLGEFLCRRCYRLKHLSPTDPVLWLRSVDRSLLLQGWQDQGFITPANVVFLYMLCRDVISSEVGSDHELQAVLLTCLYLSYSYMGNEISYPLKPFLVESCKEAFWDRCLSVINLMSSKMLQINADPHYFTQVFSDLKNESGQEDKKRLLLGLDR
Neurotensin receptor type 1, sequence (P30989 whole entry): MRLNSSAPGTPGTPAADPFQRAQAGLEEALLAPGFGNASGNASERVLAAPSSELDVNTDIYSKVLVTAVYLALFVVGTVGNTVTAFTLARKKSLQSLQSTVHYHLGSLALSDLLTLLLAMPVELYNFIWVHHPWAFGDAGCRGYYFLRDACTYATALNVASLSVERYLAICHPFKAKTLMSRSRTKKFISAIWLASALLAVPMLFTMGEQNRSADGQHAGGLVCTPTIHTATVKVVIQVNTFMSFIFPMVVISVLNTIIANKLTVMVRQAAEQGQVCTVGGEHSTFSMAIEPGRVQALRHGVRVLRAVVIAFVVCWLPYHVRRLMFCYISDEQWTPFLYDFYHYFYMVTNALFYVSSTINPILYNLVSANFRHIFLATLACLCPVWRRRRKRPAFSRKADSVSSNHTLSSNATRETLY
Phospholipase A2, sequence (P04054 whole entry, the tested form may be a part): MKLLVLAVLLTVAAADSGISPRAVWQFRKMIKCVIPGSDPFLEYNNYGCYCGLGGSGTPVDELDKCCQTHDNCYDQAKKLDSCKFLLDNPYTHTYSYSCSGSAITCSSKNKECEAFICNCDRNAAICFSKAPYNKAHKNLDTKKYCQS

SMILES: O=C(CN1CCC(n2nnc3cc(F)ccc32)CC1)Nc1ccc2c(c1)CCC2
- EC50 [1]: 6.67 µM (active)
- CC50 [2]: > 50 µM (active)
- EC50 [3]: 5.76 µM (active)

SMILES: COc1ccc(S(=O)(=O)Nc2c(C(=O)O)[nH]c3ccc(OC)cc23)c(OC)c1
- AC50 [4]: 20.6 µM (active)

SMILES: NS(=O)(=O)c1ccc(N2N=C(c3ccccc3)CC2c2ccccc2)cc1 (configuration not stated)
- AC50 [5]: 66.6 µM (active)

SMILES: O=C(/C=C/c1cccc(Cl)c1)c1nc2ccccc2[nH]1
- IC50 [6]: 5.08 µM (active)
- EC50 [7]: 2.16 µM (active)
- EC50 [8]: 2.2 µM (active)
- IC50 [9]: > 25 µM (active)
- EC50 [10]: 67 µM (inconclusive)
- CC50 [11]: 12.1 µM (active)
- IC50 [12]: 7.7 µM (active)
- EC50 [13]: 2.34 µM (active)
- EC50 [14]: 25.8 µM (inactive)

SMILES: COc1ccc(C)cc1NC(=O)CCCOc1cc(=O)n(C)c2ccccc12
- EC50 [15]: > 49.7 µM (inactive)
- EC50 [16]: > 49.7 µM (inactive)

SMILES: O=C1C(SCCO)=C(SCCO)C(=O)c2ccccc21
- AC50 [17]: 31.6 µM (inconclusive)
- IC50 [18]: 55.5 µM (inactive)
- IC50 [19]: 0.479 µM (active)
- IC50 [20]: 12.1 µM (inactive)
- CC50 [21]: 24.5 µM (active)
- IC50 [22]: 32.5 µM (active)
- IC50 [23]: 12.8 µM (active)
- CC50 [24]: 30.1 µM (active)
- IC50 [25]: 3.15 µM (active)
- IC50 [26]: 26.6 µM (active)
- IC50 [27]: 12.7 µM (active)
